Data on two molecules can be found in ChEMBL document CHEMBL1129432, “Structure-activity relationships of a series of novel (piperazinylbutyl)thiazolidinone antipsychotic agents related to 3-[4-[4-(6-fluorobenzo[b]thien-3-yl)-1-piperazinyl]butyl]-2,5,5- trimethyl-4-thiazolidinone maleate” (J Med Chem, 1996).

The test system of assay [1] is Rattus norvegicus. Nature of the assay: Percentage change in chronic single unit sampling when compound given at a dose of 0.5 mg/kg ip in rats (Expt-2). The assay is classed as functional. As to conditions: route intraperitoneal.
The test system of assay [2] is Rattus norvegicus. The assay is described as follows: Anti psychotic effect Social interaction when compound administered at a doe of 0.125 mg/kg ip in rats. As to conditions: route intraperitoneal. The assay is classed as functional.
Assay [3] relates to Rattus norvegicus. Nature of the assay: Anti psychotic effect Social interaction when compound administered at a doe of 0.05 mg/kg ip in rats. The assay is classed as functional. As to conditions: route intraperitoneal.
Assay [4] deals with Rattus norvegicus. Nature of the assay: Total activity (anti psychotic) when compound administered at a doe of 0.125 mg/kg ip in rats. Format: functional. As to conditions: route intraperitoneal.
A short description of assay [5]: Intraperitoneal effective dose required for inhibition of apomorphine-induced stereotypy in rat. As to conditions: ip. Format: functional.
Assay [6] concerns Rattus norvegicus. The assay is described as follows: Percentage change in Total activity (anti psychotic) when compound administered at a doe of 0.125 mg/kg ip in rats. The assay is classed as functional. As to conditions: route intraperitoneal.
Assay [7] deals with Rattus norvegicus. The assay is described as follows: Percentage change in Total activity (anti psychotic) when compound administered at a doe of 0.05 mg/kg ip in rats. The assay is classed as functional. As to conditions: route intraperitoneal.
In assay [8] the test system is Rattus norvegicus. Nature of the assay: Percentage change in Social interaction when compound administered at a doe of 0.05 mg/kg ip in rats. Format: functional. As to conditions: route intraperitoneal.
In assay [9] the test system is Rattus norvegicus. The assay is described as follows: Percentage change in chronic single unit sampling when compound given at a dose of 0.5 mg/kg ip in rats. The assay is classed as functional. As to conditions: route intraperitoneal.
In assay [10] the test system is Rattus norvegicus. Nature of the assay: Percentage change in Social interaction when compound administered at a doe of 0.125 mg/kg ip in rats. As to conditions: route intraperitoneal. The assay is classed as functional.
For assay [11], the target named is Serotonin 2 (5-HT2) receptor (Rattus norvegicus, UniProt P30994+P08909+P14842). The assay is described as follows: Binding affinity towards serotonin 5-HT2 receptor was determined in rat cortex using [3H]spiperone as ligand.
The target in assay [12] is D(2) dopamine receptor (Rattus norvegicus, UniProt P61169). Nature of the assay: Binding affinity towards Dopamine receptor D2 was determined in rat striatum using [3H]- spiperone as radioligand. Format: tissue-based.
Assay [13] concerns Rattus norvegicus. Nature of the assay: Compound at an intraperitoneal dose of 30 mg/Kg was tested for the inhibition of apomorphine-induced stereotypy in rat. The assay is classed as functional. Further details: scale not given: the % may be the effect or the level left.
Assay [14] deals with T1, 5-hydroxytryptamine receptor 1A (Rattus norvegicus, UniProt P19327).
T1 sequence (P19327 whole entry): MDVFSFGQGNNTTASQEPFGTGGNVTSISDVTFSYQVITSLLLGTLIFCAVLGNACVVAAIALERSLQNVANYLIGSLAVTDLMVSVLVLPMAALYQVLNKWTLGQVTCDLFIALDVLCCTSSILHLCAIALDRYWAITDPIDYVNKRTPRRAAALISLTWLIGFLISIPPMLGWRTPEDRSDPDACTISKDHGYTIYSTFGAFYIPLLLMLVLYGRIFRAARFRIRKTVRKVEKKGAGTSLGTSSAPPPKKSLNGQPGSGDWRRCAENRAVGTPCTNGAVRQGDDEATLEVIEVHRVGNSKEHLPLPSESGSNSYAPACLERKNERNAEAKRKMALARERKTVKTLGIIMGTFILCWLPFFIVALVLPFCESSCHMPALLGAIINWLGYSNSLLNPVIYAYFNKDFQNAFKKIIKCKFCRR
The assay is described as follows: Binding affinity towards serotonin 5-HT1A receptor was determined in rat hippocampus using [3H]8-OH-DPAT as ligand. The assay is classed as tissue-based.

Assay [15] concerns Rattus norvegicus. Nature of the assay: Compound at an intraperitoneal dose of 20 mg/Kg was tested for the inhibition of apomorphine-induced stereotypy in rat. The assay is classed as functional. Details: scale not given: the % may be the effect or the level left.

D(2) dopamine receptor, sequence (P61169 whole entry): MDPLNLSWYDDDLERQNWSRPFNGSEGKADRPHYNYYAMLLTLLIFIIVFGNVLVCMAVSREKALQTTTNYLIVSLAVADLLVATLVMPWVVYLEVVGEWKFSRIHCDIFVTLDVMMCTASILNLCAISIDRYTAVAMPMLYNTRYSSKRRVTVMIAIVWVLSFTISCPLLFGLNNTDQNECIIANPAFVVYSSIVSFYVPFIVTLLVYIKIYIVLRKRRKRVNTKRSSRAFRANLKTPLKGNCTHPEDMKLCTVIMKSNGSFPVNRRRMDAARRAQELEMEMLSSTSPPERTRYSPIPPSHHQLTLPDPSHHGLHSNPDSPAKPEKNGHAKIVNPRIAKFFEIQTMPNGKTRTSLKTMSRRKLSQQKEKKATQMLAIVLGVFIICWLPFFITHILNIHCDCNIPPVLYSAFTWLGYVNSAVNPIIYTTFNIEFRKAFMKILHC

On to `O=C(CCCN1CCC(O)(c2ccc(Cl)cc2)CC1)c1ccc(F)cc1` [HALOPERIDOL], for which the Change in assay [1] is on record as -30%; in assay [6] it was -22%; in assay [7], -11%; in assay [8], -19%; in assay [9], -35%; in assay [10], -32%. The figures for the Social interaction in assay [2] and in assay [3] were 65.6 and 77.2, respectively. This molecule showed a Total activity in assay [4] of 112.3. In addition, the 50% effect level in assay [5] (ED50) was put at a dose of 0.6 mg/kg.

`CC1SC2(CCCC2)C(=O)N1CCCCN1CCN(c2nsc3ccccc23)CC1` (stereo not given): the IC50 – broadly, the point on the concentration scale where inhibition reaches its midpoint – came out at 9.6 nM in assay [11], 154 nM in assay [12] and 3 nM in assay [14]. The Activity was determined as 100% in [13] and 10% in [15].
